The values below come from US10138233B2, “Imidazole compounds as modulators of FSHR and uses thereof” (Merck Patent GmbH, priority 2013, dated 2018).

SMILES strings stand for the structures.

For this experiment, the target named is T1, FSHR (Homo sapiens, UniProt P23945).
T1 construct: expressed in transfected cells; host or cells: CHO cells, clone Cho-FSHR-LUC-1-1-43
T1 sequence (P23945 18-695): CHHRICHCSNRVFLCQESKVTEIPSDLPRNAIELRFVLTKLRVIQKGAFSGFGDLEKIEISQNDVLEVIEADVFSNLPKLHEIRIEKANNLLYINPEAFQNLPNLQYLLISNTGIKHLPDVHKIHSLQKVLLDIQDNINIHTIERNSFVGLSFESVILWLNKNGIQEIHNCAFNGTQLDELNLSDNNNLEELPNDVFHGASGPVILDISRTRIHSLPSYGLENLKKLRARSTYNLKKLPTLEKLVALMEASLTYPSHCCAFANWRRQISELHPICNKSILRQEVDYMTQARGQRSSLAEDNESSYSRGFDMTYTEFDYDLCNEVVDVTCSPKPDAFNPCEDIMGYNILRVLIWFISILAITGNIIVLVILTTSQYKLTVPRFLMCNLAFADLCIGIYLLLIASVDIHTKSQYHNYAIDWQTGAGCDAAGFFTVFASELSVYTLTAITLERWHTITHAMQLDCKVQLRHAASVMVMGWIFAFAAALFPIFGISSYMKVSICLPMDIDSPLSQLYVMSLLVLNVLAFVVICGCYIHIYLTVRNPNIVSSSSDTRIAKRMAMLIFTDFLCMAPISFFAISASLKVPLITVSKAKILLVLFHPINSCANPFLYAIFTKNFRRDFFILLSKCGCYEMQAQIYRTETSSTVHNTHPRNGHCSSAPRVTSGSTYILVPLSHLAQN
Description: EC50 of cyclic AMP production in CHO FSHR cells + EC20 FSH (Assay A). The class given is cell-based. Conditions: CHO-FSHR-LUC cells, in presence of EC20 FSH, cAMP HTRF, 1 h 37° C. On the procedure:
EC50 of cyclic AMP production in CHO FSHR cells+EC20 FSH (Assay A)
2500 Cho-FSHR-LUC-1-1-43 cells were plated per well in 5 μl of phenol red free DMEM/F12+1% FBS. […] Cells were assayed by adding 100 μl of 2×EC20 FSH/IBMX in DMEM/F12+0.1% BSA) by Multidrop to 2 μl of test compound stamped in 384 well plates (compounds are diluted 1:50). […] The compound plate map was as follows: Column 1: 2 μl of DMSO; Column 2: 2 μl of DMSO; Columns 3-12 and 13-24: 2 μl of test compound, diluted 1:4 in 100% DMSO, or 2 μl of FSH, diluted 1:4 in DMEM/F12+0.1% BSA. The starting concentration for FSH was 50 nM (final concentration was 0.5 nM). […] 10 μl of mixed HTRF (CisBio #62AM4PEC) reagents were added per well and incubated at room temperature for 1 h. The plates were read on Envision using the cAMP HTRF—low volume 384 well protocol. […] Values given in percent (%) indicate the percental effect (response) at a certain concentration of agonist relative to the maximum response of the FSH standard.
(In TR-FRET formats the signal depends on donor and acceptor labels being close together.)
`COc1cc2c(cc1OC)-n1c(-c3cccs3)nc(C(=O)N(C)C(C)(C)C)c1CC2` [Compound 1, 7,8-Dimethoxy-1-thiophen-2-yl-4,5-dihydro-imidazo[1,5-a]quinoline-3-carboxylic acid tert-butyl-methyl-amide]: the EC50 (as a rule, the concentration that produces a half-maximal response) lay in the range of 100 to 1000 nM. In the case of `COc1cc2c(cc1OC)-n1c(-c3ccsc3)nc(C(=O)N(C)C(C)(C)C)c1CC2` [Compound 2, 7,8-Dimethoxy-1-thiophen-3-yl-4,5-dihydro-imidazo[1,5-a]quinoline-3-carboxylic acid tert-butyl-methyl-amide] it was 100 to 1000 nM; in that of `COc1cc2c(cc1OC(C)C)-n1c(Br)nc(C(=O)N3CCCN(C(=O)C4CCC4)CC3)c1CC2` [Compound 3], below 100 nM. With `COc1cc2c(cc1OC(C)C)-n1c(Br)nc(C(=O)N(C)C(C)(C)C)c1CC2` [Compound 4, 1-Bromo-8-isopropoxy-7-methoxy-4,5-dihydro-imidazo[1,5-a]quinoline-3-carboxylic acid tert-butyl-methyl-amide], the half-maximal effective concentration (EC50) was above 5000 nM. In the case of `COc1cc2c(cc1OC(C)C)-n1c(-c3ccsc3)nc(C(=O)N(C)C(C)(C)C)c1CC2` [Compound 5] it was 100 to 1000 nM; in that of `COc1cc2c(cc1-c1cccnc1)-n1c(-c3ccsc3)nc(C(=O)N(C)C(C)(C)C)c1CC2` [Compound 8, 7-Methoxy-8-pyridin-3-yl-1-thiophen-3-yl-4,5-dihydro-imidazo[1,5-a]quinoline-3-carboxylic acid tert-butyl-methyl-amide], below 100 nM. In the case of `COc1cc2c(cc1OC(C)C)-n1c(-c3cncs3)nc(C(=O)N3CCCN(C(=O)N4CCC4)CC3)c1CC2` [Compound 9], the 50% effective concentration (EC50) lay in the range of 1000 to 5000 nM. For the molecule `COc1cc2c(cc1OC(C)C)-n1c(-c3ccsc3)nc(C(=O)N3CCCN(C(=O)N4CCC4)CC3)c1CC2` [Compound 10], the EC50 fell in the range of 100 to 1000 nM. As to `COc1cc2c(cc1CC(C)C)-n1c(-c3cc[nH]n3)nc(C(=O)N(C)C(C)(C)C)c1CC2` [Compound 12, 8-Isobutyl-7-methoxy-1-(1H-pyrazol-3-yl)-4,5-dihydro-imidazo[1,5-a]quinoline-3-carboxylic acid tert-butyl-methyl-amide], the concentration for a half-maximal effect (EC50) was above 5000 nM. Under `COc1cc2c(cc1OC(C)C)-n1c(-c3ccncc3)nc(C(=O)N(C)C(C)(C)C)c1CC2` [Compound 13] stands above 5000 nM; under `COc1cc2c(cc1OC(C)C)-n1c(-c3ccc(F)s3)nc(C(=O)N(C)C(C)(C)C)c1CC2` [Compound 14], below 100 nM. Take `COc1cc2c(cc1OC(C)C)-n1c(-c3ccn(C)c3)nc(C(=O)N(C)C(C)(C)C)c1CC2` [Compound 15]: the 50% effective concentration (EC50) lay in the range of 100 to 1000 nM.

As for `COc1cc2c(cc1OC(C)C)-n1c(-c3cnc(C)s3)nc(C(=O)N(C)C(C)(C)C)c1CC2` [Compound 16], the concentration giving a half-maximal response (EC50) is 1000 to 5000 nM. Under `COc1cc2c(cc1CC(C)C)-n1c(-c3cccs3)nc(C(=O)N(C)C(C)(C)C)c1CC2` [Compound 17, 8-Isobutyl-7-methoxy-1-thiophen-2-yl-4,5-dihydro-imidazo[1,5-a]quinoline-3-carboxylic acid tert-butyl-methyl-amide] stands below 100 nM; under `COc1cc2c(cc1CC(C)C)-n1c(-c3ccsc3)nc(C(=O)N(C)C(C)(C)C)c1CC2` [Compound 18, 8-Isobutyl-7-methoxy-1-thiophen-3-yl-4,5-dihydro-imidazo[1,5-a]quinoline-3-carboxylic acid tert-butyl-methyl-amide], 100 to 1000 nM.

Turning to `COc1cc2c(cc1CC(C)C)-n1c(-c3cccs3)nc(C(=O)N3CCOCC3(C)C)c1CC2` [Compound 20, (3,3-Dimethyl-morpholin-4-yl)-(8-isobutyl-7-methoxy-1-thiophen-2-yl-4,5-dihydro-imidazo[1,5-a]quinolin-3-yl)-methanone], the EC50 is below 100 nM. Turning to `COc1cc2c(cc1CC(C)C)-n1c(C3CCN(C)CC3)nc(C(=O)N(C)C(C)(C)C)c1CC2` [Compound 22, N-(tert-butyl)-8-isobutyl-7-methoxy-N-methyl-1-(1-methylpiperidin-4-yl)-4,5-dihydroimidazo[1,5-a]quinoline-3-carboxamide], the concentration for a half-maximal effect (EC50) was in the range of 1000 to 5000 nM.
